Measurements reported in patent publication US11331299B2, “Medicinal use of serrulatane diterpenes” (The University of Sydney, priority 2016, dated 2022).
Where two headings read alike, the source gives them in different places.

System: 280 human cancer cell lines
Experiment: OncoPanel cell proliferation assay (10-day)
Assay type: cell-based
Details: Homo sapiens; for EC50: read-out: Cell Count EC50; for GI50: read-out: Cell Count GI50; for IC50: read-out: Cell Count IC50
[1] = NCI-H292, NCI-H292, Lung - NSCLC
[2] = NCI-H295R, Endocrine - Adrenal gland
[3] = NCI-H441, NCIH441, Lung - NSCLC
[4] = NCI-H460, NCI-H460, Lung - NSCLC
[5] = NCI-H520, NCI-H520, Lung - NSCLC
[6] = NCI-H596, NCI-H596, Lung - NSCLC
[7] = NCI-H661, NCI-H661, Lung - NSCLC
[8] = NTERA-2-cl-D1, NTERA-2 cl.D1, Testis
[9] = OVCAR-3, OVCAR3, Female GU - Ovary
[10] = RPMI-7951, RPMI-7951, Skin (Melanoma)
[11] = SAOS-2, SaOS2, Soft Tissue - Osteosarcoma

**Q.** For `CC(C)=CCC[C@@H]1C(O)Oc2c(C)cc(O)c3c2[C@H]1CC[C@H]3C` (some centres unmarked) [Compound 2, 5,18-epoxyserrulat-14-en-8,18-diol], which EC50 [1] is on record?
**A.** 16.7 µM

**Q.** What about the GI50 [1] of the same molecule?
**A.** 16.6 µM

**Q.** What about the IC50 [1] of the same molecule?
**A.** 16.7 µM

**Q.** What about the EC50 [2] of the same molecule?
**A.** > 30 µM

**Q.** What about the GI50 [2] of the same molecule?
**A.** > 30 µM

**Q.** What about the IC50 [2] of the same molecule?
**A.** > 30 µM

**Q.** And the EC50 [3]?
**A.** > 30 µM

**Q.** What about the GI50 [3] of the same molecule?
**A.** > 30 µM

**Q.** And the IC50 [3]?
**A.** > 30 µM

**Q.** And the EC50 (NCI-H446, NCIH446, Lung - SCLC)?
**A.** 9.75 µM

**Q.** And the GI50 (NCI-H446, NCIH446, Lung - SCLC)?
**A.** 9.77 µM

**Q.** What about the IC50 (NCI-H446, NCIH446, Lung - SCLC) of the same molecule?
**A.** 9.85 µM

**Q.** What about the EC50 [4] of the same molecule?
**A.** 5.57 µM

**Q.** What about the GI50 [4] of the same molecule?
**A.** 5.91 µM

**Q.** And the IC50 [4]?
**A.** 5.92 µM

**Q.** And the EC50 (NCI-H508, NCI-H508, Colon)?
**A.** > 30 µM

**Q.** What about the GI50 (NCI-H508, NCI-H508, Colon) of the same molecule?
**A.** > 30 µM

**Q.** What about the IC50 (NCI-H508, NCI-H508, Colon) of the same molecule?
**A.** > 30 µM

**Q.** What about the EC50 [5] of the same molecule?
**A.** 9.03 µM

**Q.** What about the GI50 [5] of the same molecule?
**A.** 9.17 µM

**Q.** What about the IC50 [5] of the same molecule?
**A.** 9.2 µM

**Q.** And the EC50 [6]?
**A.** 12 µM

**Q.** What about the GI50 [6] of the same molecule?
**A.** 14.4 µM

**Q.** What about the IC50 [6] of the same molecule?
**A.** 15.1 µM

**Q.** What about the EC50 [7] of the same molecule?
**A.** 9.51 µM

**Q.** And the GI50 [7]?
**A.** 9.51 µM

**Q.** And the IC50 [7]?
**A.** 9.51 µM

**Q.** And the EC50 (NCI-H747, NCI-H747, Colon)?
**A.** 12.3 µM

**Q.** And the GI50 (NCI-H747, NCI-H747, Colon)?
**A.** > 30 µM

**Q.** What about the IC50 (NCI-H747, NCI-H747, Colon) of the same molecule?
**A.** > 30 µM

**Q.** What about the EC50 [8] of the same molecule?
**A.** 12.5 µM

**Q.** And the GI50 [8]?
**A.** 12.3 µM

**Q.** What about the IC50 [8] of the same molecule?
**A.** 12.5 µM

**Q.** What about the EC50 (OCUG-1, OCUG-1, Liver) of the same molecule?
**A.** > 30 µM

**Q.** What about the GI50 (OCUG-1, OCUG-1, Liver) of the same molecule?
**A.** 29.9 µM

**Q.** What about the IC50 (OCUG-1, OCUG-1, Liver) of the same molecule?
**A.** > 30 µM

**Q.** What about the EC50 (OE19, OE19, Head and Neck) of the same molecule?
**A.** > 30 µM

**Q.** And the GI50 (OE19, OE19, Head and Neck)?
**A.** > 30 µM

**Q.** And the IC50 (OE19, OE19, Head and Neck)?
**A.** > 30 µM

**Q.** What about the EC50 (OE21, OE21, Head and Neck) of the same molecule?
**A.** > 30 µM

**Q.** What about the GI50 (OE21, OE21, Head and Neck) of the same molecule?
**A.** > 30 µM

**Q.** And the IC50 (OE21, OE21, Head and Neck)?
**A.** > 30 µM

**Q.** What about the EC50 [9] of the same molecule?
**A.** 14.4 µM

**Q.** What about the GI50 [9] of the same molecule?
**A.** 13.7 µM

**Q.** What about the IC50 [9] of the same molecule?
**A.** 14.4 µM

**Q.** And the EC50 (PA-1, Female GU - Ovary)?
**A.** 11.6 µM

**Q.** What about the GI50 (PA-1, Female GU - Ovary) of the same molecule?
**A.** 16.2 µM

**Q.** And the IC50 (PA-1, Female GU - Ovary)?
**A.** 16.3 µM

**Q.** And the EC50 (PANC-1, PANC-1, Pancreas)?
**A.** 7.06 µM

**Q.** What about the GI50 (PANC-1, PANC-1, Pancreas) of the same molecule?
**A.** 7.01 µM

**Q.** What about the IC50 (PANC-1, PANC-1, Pancreas) of the same molecule?
**A.** 7.06 µM

**Q.** What about the EC50 (PC-3, Prostate) of the same molecule?
**A.** 12 µM

**Q.** What about the GI50 (PC-3, Prostate) of the same molecule?
**A.** 11.8 µM

**Q.** What about the IC50 (PC-3, Prostate) of the same molecule?
**A.** 12 µM

**Q.** What about the EC50 (PFSK-1, PFSK-1, CNS - Glioma) of the same molecule?
**A.** 14.7 µM

**Q.** What about the GI50 (PFSK-1, PFSK-1, CNS - Glioma) of the same molecule?
**A.** 14.6 µM

**Q.** And the IC50 (PFSK-1, PFSK-1, CNS - Glioma)?
**A.** 14.7 µM

**Q.** And the EC50 (PSN1, PSN-1, Pancreas)?
**A.** 12 µM

**Q.** And the GI50 (PSN1, PSN-1, Pancreas)?
**A.** 12 µM

**Q.** What about the IC50 (PSN1, PSN-1, Pancreas) of the same molecule?
**A.** 12 µM

**Q.** What about the EC50 (RD, Soft Tissue - Sarcoma) of the same molecule?
**A.** 2.98 µM

**Q.** What about the GI50 (RD, Soft Tissue - Sarcoma) of the same molecule?
**A.** 2.96 µM

**Q.** What about the IC50 (RD, Soft Tissue - Sarcoma) of the same molecule?
**A.** 2.98 µM

**Q.** And the EC50 (RKO, Colon)?
**A.** 7.22 µM

**Q.** What about the GI50 (RKO, Colon) of the same molecule?
**A.** 7.92 µM

**Q.** And the IC50 (RKO, Colon)?
**A.** 7.92 µM

**Q.** And the EC50 (RKOE6, RKOE6, Colon)?
**A.** 6.95 µM

**Q.** And the GI50 (RKOE6, RKOE6, Colon)?
**A.** 6.93 µM

**Q.** What about the IC50 (RKOE6, RKOE6, Colon) of the same molecule?
**A.** 6.95 µM

**Q.** What about the EC50 (RPMI-6666, RPMI 6666, Lymphoma) of the same molecule?
**A.** 10.4 µM

**Q.** What about the GI50 (RPMI-6666, RPMI 6666, Lymphoma) of the same molecule?
**A.** 10.7 µM

**Q.** And the IC50 (RPMI-6666, RPMI 6666, Lymphoma)?
**A.** 10.7 µM

**Q.** And the EC50 [10]?
**A.** 5.77 µM

**Q.** And the GI50 [10]?
**A.** 6.13 µM

**Q.** And the IC50 [10]?
**A.** 6.15 µM

**Q.** What about the EC50 (RPMI-8226, RPMI 8226, Myeloma) of the same molecule?
**A.** 2.02 µM

**Q.** What about the GI50 (RPMI-8226, RPMI 8226, Myeloma) of the same molecule?
**A.** 1.95 µM

**Q.** And the IC50 (RPMI-8226, RPMI 8226, Myeloma)?
**A.** 2.02 µM

**Q.** And the EC50 (RS4-11, RS4, 11, Leukemia)?
**A.** 6.43 µM

**Q.** What about the GI50 (RS4-11, RS4, 11, Leukemia) of the same molecule?
**A.** 6.3 µM

**Q.** And the IC50 (RS4-11, RS4, 11, Leukemia)?
**A.** 6.43 µM

**Q.** What about the EC50 (Raji, Lymphoma) of the same molecule?
**A.** 8.04 µM

**Q.** And the GI50 (Raji, Lymphoma)?
**A.** 8.04 µM

**Q.** And the IC50 (Raji, Lymphoma)?
**A.** 8.04 µM

**Q.** And the EC50 (Ramos, Ramos (RA 1), Lymphoma)?
**A.** 4.39 µM

**Q.** And the GI50 (Ramos, Ramos (RA 1), Lymphoma)?
**A.** 4.39 µM

**Q.** And the IC50 (Ramos, Ramos (RA 1), Lymphoma)?
**A.** 4.39 µM

**Q.** And the EC50 [11]?
**A.** 15.7 µM

**Q.** And the GI50 [11]?
**A.** 15.1 µM

**Q.** And the IC50 [11]?
**A.** 15.7 µM

**Q.** What about the EC50 (SCC-4, SCC-4, Head and Neck) of the same molecule?
**A.** > 30 µM

**Q.** And the GI50 (SCC-4, SCC-4, Head and Neck)?
**A.** > 30 µM

**Q.** And the IC50 (SCC-4, SCC-4, Head and Neck)?
**A.** > 30 µM

**Q.** And the EC50 (SCC-9, SCC-9, Head and Neck)?
**A.** 26.7 µM

**Q.** What about the GI50 (SCC-9, SCC-9, Head and Neck) of the same molecule?
**A.** 27.3 µM

**Q.** What about the IC50 (SCC-9, SCC-9, Head and Neck) of the same molecule?
**A.** 27.3 µM

**Q.** And the EC50 (SCC-25, SCC-25, Head and Neck)?
**A.** > 30 µM

**Q.** What about the GI50 (SCC-25, SCC-25, Head and Neck) of the same molecule?
**A.** > 30 µM

**Q.** What about the IC50 (SCC-25, SCC-25, Head and Neck) of the same molecule?
**A.** > 30 µM

**Q.** And the EC50 (SCaBER, Bladder)?
**A.** 11.5 µM

**Q.** And the GI50 (SCaBER, Bladder)?
**A.** 11.4 µM
